Structures can show the parent of a compound that is named as a salt.
Columns and labels:
[1] = molecular target: T1, S1P1 (Homo sapiens, UniProt P21453); assay: S1P1 Binding Assay (33P-S1P ligand competition, membranes from CHO cells); design: expressed in transfected cells; host or cells: CHO cells; details: membranes of CHO cells expressing human S1P1; 0.03 nM 33P-S1P; 60 min room temperature
Description: Membranes were prepared from CHO cells expressing human S1P1. Cells were dissociated in buffer containing 20 mM HEPES, pH 7.5, 50 mM NaCl, 2 mM EDTA and Protease Inhibitor cocktail (Roche), and disrupted on ice using the Polytron homogenizer. The homogenate was centrifuged at 20,000 rpm (48,000 g) and the supernatant was discarded. The membrane pellets were resuspended in buffer containing 50 mM HEPES, pH 7.5, 100 mM NaCl, 1 mM MgCl2, 2 mM EDTA and stored in aliquots at −80° C. after protein concentration determination.
Membranes (2 μg/well) and 0.03 nM final concentration of ^33P-S1P ligand (1 mCi/ml, American Radiolabeled Chemicals) were added to the compound plates. Binding was performed for 60 min at room temperature, terminated by collecting the membranes onto GF/B filter plates, and radioactivity was measured by TOPCOUNT®. The competition data of the test compounds over a range of concentrations was plotted as percentage inhibition of radioligand specific binding. The IC50 is defined as the concentration of competing ligand needed to reduce specific binding by 50%.
Compounds of the present invention and Comparative Compound A were tested in the S1P1 binding assay described hereinabove and the results rounded to two digits, shown in Table A were obtained. In some instances, the value is an average of multiple experiments where N is the number of experiments conducted that provided satisfactory dose response curves. When more than one batch of an example was tested, the value presented is from the batch which allowed a comparison of GTPγS S1P1 and GTPγS S1P3 in Method A (Data shown in Table B). Data was not averaged across different batches of an example compound.

[2] = molecular target: T1, S1P1; assay: Method A: Receptor [35S] GTPγS Binding Assay, membranes from S1P1/CHO cells; format: biochemical; design: expressed in transfected cells; host or cells: S1P1/CHO cells; details: for EC50: Method A, S1P1/CHO cell membranes; for GTPγS S1P3/S1P1 (Method A): ratio of GTPγS S1P3 EC50 to GTPγS S1P1 EC50, Method A
Description: (§1) Compounds were loaded in a 384 Falcon v-bottom plate (0.5 μl/well in a 3-fold dilution). Membranes prepared from S1P1/CHO cells or EDG3-Ga15-bla HEK293T cells were added to the compound plate (40 μl/well, final protein […]) with MULTIDROP®. [^35S]GTP (1250 Ci/mmol, Perkin Elmer) was diluted in assay buffer: 20 mM HEPES, pH7.5, 10 mM MgCl2, 150 mM NaCl, 1 mM EGTA, 1 mM DTT, 10 μM GDP, 0.1% fatty acid free BSA, and 10 mg/ml Saponin to 0.4 nM. 40 μl of the [^35S] GTP solution was added to the compound plate with a final concentration of 0.2 nM. The reaction was kept at room temperature for 45 min. At the end of incubation, all the mixtures in the compound plate were transferred to a 384 well FB filter plates via GPCR robot system. The filter plate was washed with water 4 times by using the modified manifold Embla plate washer and dried at 60° C. for 45 min. 30 μl of MicroScint 20 scintillation fluid was added to each well for counting at Packard TOPCOUNT®. EC50 is defined as the agonist concentration that corresponds to 50% of the Ymax (maximal response) obtained for each individual compound tested.
(§2) Compounds of the present invention and Comparative Compound A were tested in the Receptor [^35S] GTPγS Binding Assays (Method A) and Receptor [35S] In some instances, the value is an average of multiple experiments where N is the number of experiments conducted that provided satisfactory dose response curves. When more than one batch of an example was tested, the value presented is from a batch which allowed a comparison of GTPγS S1P1 and GTPγS S1P3 in which the most number of experiments were performed. Preferably, the same batch was examined in Method A and Method B. Data was not averaged across different batches of an example compound.

[3] = system: circulating lymphocytes; assay: Blood Lymphocyte Reduction Assay (BLR) in mice; format: in vivo; details: BALB/c mice, oral, vs vehicle group
Description: (§3) Lewis rats or BALB/c mice were dosed orally with test article (as a solution or suspension in the vehicle) or vehicle alone (polyethylene glycol 300, “PEG300”). Blood was drawn at 4 hr and 24 h by retro-orbital bleeding. Blood lymphocyte counts were determined on an ADVIA® 120 Hematology Analyzer (Siemens Healthcare Diagnostics). The results were measured as a reduction in the percentage of circulating lymphocytes as compared to the vehicle treated group at the 4 hr and 24 hr measurement. The results represent the average results of all animals within each treatment group (n=3-4).
(§4) Examples 1 and 2 were tested in the Blood Lymphocyte Reduction assay (BLR) described hereinabove and the results are shown in Table D for rats and Table E for mice.

[4] = molecular target: T1, S1P1; assay: Method B: Receptor [35S] GTPγS SPA Binding Assay, membranes from S1P1 transfected CHO cells; format: biochemical; design: expressed in transfected cells; host or cells: S1P1/CHO cells; details: for EC50: Method B SPA, S1P1 transfected CHO cell membranes, NC = a satisfactory dose response curve was not obtained; for GTPγS S1P3/S1P1 (Method B): ratio of GTPγS S1P3 EC50 to GTPγS S1P1 EC50, Method B
Description: (§5) Membranes prepared from S1P1 or S1P3 transfected CHO cells (2 μg protein) were incubated in 96-well white plates (CORNING® 3693) with test compounds diluted in DMSO, in 50 μl of reaction mixture containing 7.5 μl WGA-PVT beads (20 mg/ml), and 5 μM GDP, 20 mM HEPES pH 7.4, 100 mM NaCl, 1 mM EDTA, 5 mM MgCl2, 10 μg/ml saponin, 0.1% BSA, and 1 μM leupeptin. The assay was initiated with the addition of 25 μl of 0.2 nM [^35S]-GTPγS (1250 Ci/mmol; NEN) in assay buffer. After 90 min incubation at room temperature, spin the plate at 1000 rpm for 5 min. The bound radionuclides were measured at TOPCOUNT®, expressed as % response relative to S1P (1 μM) activation. Data was analyzed using the four parameter logistic equation in Excel. The four parameters in the equation, Y=A+((B−A)/(1+((EC50/X)^D))), are described as following: A is the Y value (agonist activity) at the bottom plateau; B is the Y value at the top plateau; EC50 is the X value (agonist concentration) when the response is halfway between bottom and top; D is Hill coefficient. Curves were not generated for compounds having Ymax values were below 50%.
as §2

[5] = system: circulating lymphocytes; assay: Blood Lymphocyte Reduction Assay (BLR) in rats; format: in vivo; details: Lewis rats, oral, vs vehicle group
Description: as §3, §4

[6] = molecular target: T2, S1P3 (Homo sapiens, UniProt Q99500); assay: Method A: Receptor [35S] GTPγS Binding Assay, membranes from EDG3-Ga15-bla HEK293T cells; format: biochemical; design: expressed in transfected cells; host or cells: EDG3-Ga15-bla HEK293T cells; details: EDG3-Ga15-bla HEK293T cell membranes
Description: as §1, §2
Target sequence in this assay (Q99500 whole entry): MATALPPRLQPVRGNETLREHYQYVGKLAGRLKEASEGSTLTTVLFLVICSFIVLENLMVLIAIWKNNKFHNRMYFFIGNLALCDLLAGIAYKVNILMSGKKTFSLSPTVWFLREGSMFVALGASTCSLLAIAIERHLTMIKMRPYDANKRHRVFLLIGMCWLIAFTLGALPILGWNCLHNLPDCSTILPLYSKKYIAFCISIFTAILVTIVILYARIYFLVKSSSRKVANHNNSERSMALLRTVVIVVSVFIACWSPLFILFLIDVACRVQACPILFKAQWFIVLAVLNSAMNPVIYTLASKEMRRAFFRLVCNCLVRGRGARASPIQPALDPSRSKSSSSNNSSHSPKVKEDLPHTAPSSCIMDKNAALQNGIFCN

[7] = molecular target: T2, S1P3; assay: Method B: Receptor [35S] GTPγS SPA Binding Assay, membranes from S1P3 transfected CHO cells; format: biochemical; design: expressed in transfected cells; host or cells: CHO cells; details: S1P3 transfected CHO cell membranes, NC = a satisfactory dose response curve was not obtained
Description: as §5, §2
Target sequence in this assay (Q99500 whole entry, species assumed): as the sequence (Q99500 whole entry) above

[8] = system: circulating lymphocytes; details: animals and humans; cited from earlier work
[9] = clinical studies, first 24 hours of treatment; cited from earlier work

T1 sequence (P21453 whole entry): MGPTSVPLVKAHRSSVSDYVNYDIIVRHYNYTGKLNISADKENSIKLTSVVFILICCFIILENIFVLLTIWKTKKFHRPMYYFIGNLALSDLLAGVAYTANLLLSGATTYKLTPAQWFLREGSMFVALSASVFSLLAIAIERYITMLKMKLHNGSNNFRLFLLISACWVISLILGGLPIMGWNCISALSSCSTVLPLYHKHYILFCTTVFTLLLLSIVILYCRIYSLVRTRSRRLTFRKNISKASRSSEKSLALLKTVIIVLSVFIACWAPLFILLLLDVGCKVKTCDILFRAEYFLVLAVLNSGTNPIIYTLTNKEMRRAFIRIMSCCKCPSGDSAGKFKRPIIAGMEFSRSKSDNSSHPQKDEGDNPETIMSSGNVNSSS

SMILES | IC50 [1] [nM] | EC50 [2] [nM] | GTPγS S1P3/S1P1 (Method A) [2] | EC50 [4] [nM] | GTPγS S1P3/S1P1 (Method B) [4] | EC50 [6] [nM] | EC50 [7] [nM] | also measured
O=C(O)C1CN(Cc2ccc(-c3noc(-c4noc(-c5ccccc5)c4C(F)(F)F)n3)cc2)C1 [Example 2, 1-(4-(5-(5-Phenyl-4-(trifluoromethyl)isoxazol-3-yl)-1,2,4-oxadiazol-3-yl)benzyl)azetidine-3-carboxylic acid] | 0.05 | 1.7 | 2,100 | 0.076 | 4,600 | 3600 | 350 | % reduction in lymphocytes at 4 hr. ([3]; 0.001 mg/kg): −26%; % reduction in lymphocytes at 24 hr. ([3]; 0.001 mg/kg): 17%; % reduction in lymphocytes at 4 hr. ([3]; 0.01 mg/kg): −4%; % reduction in lymphocytes at 24 hr. ([3]; 0.01 mg/kg): 15%; % reduction in lymphocytes at 4 hr. ([3]; 0.1 mg/kg): 70%; % reduction in lymphocytes at 24 hr. ([3]; 0.1 mg/kg): 62%; % reduction in lymphocytes at 4 hr. ([3]; 1.0 mg/kg): 83%; % reduction in lymphocytes at 24 hr. ([3]; 1.0 mg/kg): 84%; % reduction in lymphocytes at 4 hr. ([5]; 0.03 mg/kg): 70%; % reduction in lymphocytes at 24 hr. ([5]; 0.03 mg/kg): 56%; % reduction in lymphocytes at 4 hr. ([5]; 0.3 mg/kg): 80%; % reduction in lymphocytes at 24 hr. ([5]; 0.3 mg/kg): 79%; % reduction in lymphocytes at 4 hr. ([5]; 1.0 mg/kg): 84%; % reduction in lymphocytes at 24 hr. ([5]; 1.0 mg/kg): 85%
CC(F)(F)c1c(-c2nc(-c3ccc(CN4CC(C(=O)O)C4)cc3)no2)noc1-c1ccccc1 [Example 9, 1-(4-(5-(4-(1,1-Difluoroethyl)-5-phenylisoxazol-3-yl)-1,2,4-oxadiazol-3-yl)benzyl)azetidine-3-carboxylic acid, 2,2,2-trifluoroacetic acid salt] | 0.14 | 3.1 | 810 | 0.14 | 6,500 | 2500 | 910 | –
O=C(O)C1CN(Cc2ccc(-c3noc(-c4noc(-c5ccccc5)c4-c4ccccc4)n3)cc2)C1 [Example 17, 1-(4-(5-(4,5-diphenylisoxazol-3-yl)-1,2,4-oxadiazol-3-yl)benzyl)azetidine-3-carboxylic acid, 2,2,2-trifluoroacetic acid salt] | 0.063 | 0.73 | 27 | 0.12 | 112 | 20 | 13.5 | –
CCCCCCCCc1ccc(CCC(N)(CO)CO)cc1 [FTY720] | – | – | – | – | – | – | – | circulating lymphocytes [8]: reduce circulating lymphocytes; bradycardia on treatment [9]: results in bradycardia

Reference: US8354398B2, “Substituted isoxazole compounds” (Bristol-Myers Squibb Company, priority 2009, dated 2013)
